Our source for the Activity and inhibition values is ChEMBL document CHEMBL5126660, “Sesquiterpenoids from Seriphidium transiliense and Their Melanogenic Activity” (2022).

For experiment [1], the system named is B16. The experiment in a line: Induction of melanogenesis in mouse B16 cells assessed as increase in intracellular melanin content at 50 uM incubated for 49 hrs by NaOH lysis based microplate reader assay. The format is functional.
The test system of experiment [2] is B16. The experiment in a line: Induction of melanogenesis in mouse B16 cells assessed as increase in intracellular tyrosinase activity at 50 uM incubated for 48 hrs by L-DOPA oxidation method. The class given is functional, cell-based.
Experiment [3] concerns B16. The experiment in a line: Induction of melanogenesis in mouse B16 cells assessed as increase in intracellular melanin content at 1 to 50 uM incubated for 49 hrs by NaOH lysis based microplate reader assay. The class given is functional, cell-based. Particulars: dose 1-50 µM, DDE = dose-dependent effect.
Experiment [4] deals with B16. The experiment in a line: Induction of melanogenesis in mouse B16 cells assessed as upregulation of MITF protein expression at 50 uM incubated for 48 hrs by Western blot analysis. The class given is functional, cell-based. (In general: In western blotting, separated proteins are transferred to a membrane and probed.)
Experiment [5] deals with B16. The experiment in a line: Induction of melanogenesis in mouse B16 cells assessed as upregulation of TYR protein expression at 50 uM incubated for 48 hrs by Western blot analysis. The format is functional, cell-based.
Experiment [6] concerns B16. The experiment in a line: Induction of melanogenesis in mouse B16 cells assessed as upregulation of TRP-1 protein expression at 50 uM incubated for 48 hrs by Western blot analysis. The format is functional, cell-based.
The test system of experiment [7] is B16. The experiment in a line: Induction of melanogenesis in mouse B16 cells assessed as upregulation of TRP-2 protein expression at 50 uM incubated for 48 hrs by Western blot analysis. The class given is functional, cell-based.
For experiment [8], the system named is B16. The experiment in a line: Induction of melanogenesis in mouse B16 cells assessed as upregulation of MITF mRNA expression at 50 uM by RT-PCR analysis. The format is functional, cell-based.
Experiment [9] deals with B16. The experiment in a line: Induction of melanogenesis in mouse B16 cells assessed as upregulation of TYR mRNA expression at 50 uM by RT-PCR analysis. The class given is functional, cell-based.
Experiment [10] concerns B16. The experiment in a line: Induction of melanogenesis in mouse B16 cells assessed as upregulation of TRP-1 mRNA expression at 50 uM by RT-PCR analysis. The class given is functional, cell-based.
In experiment [11] the test system is B16. The experiment in a line: Induction of melanogenesis in mouse B16 cells assessed as upregulation of TRP-2 mRNA expression at 50 uM by RT-PCR analysis. The format is functional, cell-based.
Experiment [12] has as its system HaCaT. The experiment in a line: Inhibition of JAK/STAT signaling pathway in human HaCaT cells assessed as downregulation of IFN-gamma induced CXCL10 protein level at 1 to 50 uM incubated for 24 hrs by ELISA. The class given is cell-based. Particulars: dose 1-50 µM, DDE = dose-dependent effect. A general note: In an ELISA, binding on a coated surface is turned into a signal by an enzyme label.

Experiment [13] relates to HaCaT. The experiment in a line: Inhibition of JAK/STAT signaling pathway in human HaCaT cells assessed as downregulation of IFN-gamma induced CXCL10 mRNA expression at 1 to 50 uM by RT-PCR analysis. Particulars: dose 1-50 µM, DDE = dose-dependent effect. The class given is cell-based.
The subject of experiment [14] is HaCaT. The experiment in a line: Inhibition of JAK/STAT signaling pathway in human HaCaT cells assessed as downregulation of IFN-gamma induced JAK1 protein expression at 1 to 50 uM incubated for 48 hrs by Western blot analysis. The class given is cell-based. Particulars: dose 1-50 µM.
Experiment [15] concerns HaCaT. The experiment in a line: Inhibition of JAK/STAT signaling pathway in human HaCaT cells assessed as downregulation of IFN-gamma induced JAK2 protein expression at 50 uM incubated for 48 hrs by Western blot analysis. The format is cell-based.
Experiment [16] relates to HaCaT. The experiment in a line: Inhibition of JAK/STAT signaling pathway in human HaCaT cells assessed as downregulation of IFN-gamma induced p-STAT protein expression at 10 to 50 uM incubated for 48 hrs by Western blot analysis. The class given is cell-based. The conditions noted are these: dose 10-50 µM.

Structures are written as SMILES. The source made the active and inactive calls. The calls are words filed in the database; no cut-off is given here.

Take `C=C1CC[C@@H](O)[C@]2(C)C[C@H](OC(C)=O)[C@H]3[C@H](C)C(=O)O[C@@H]3[C@@]12O`: the outcome in [1] was Active.

For the compound `C=C1CC[C@@H](O)[C@]2(C)CC[C@@H]([C@@H](C)C(=O)OC)[C@H](O)[C@@]12O`, the outcome in experiment [1] was Active.

`C=C1CC[C@H](O)[C@]2(C)CC[C@H]3[C@@H](C)C(=O)O[C@@H]3[C@@]12O`: the result in [1] was Active.

Turning to `C=C1CC[C@@H](O)[C@]2(C)CC[C@@H]([C@@H](C)C(=O)OC)[C@H](O)[C@]12O`, the values for the Activity in experiment [1] and in experiment [3] were 153% and “Dde”, respectively. The outcome in experiment [2], in [4], in experiment [5], in experiment [6], in experiment [7] and in experiment [8] was Active. For the same compound, the outcome in experiment [9], in [10] and in [11] was Active. In addition, the inhibition entry in [12] and in experiment [13] was “Dde” each time. The inhibition result in experiment [14], in [15] and in [16] was “Active” each time.

For the compound `COc1c2occc2cc2ccc(=O)oc12` [METHOXSALEN], the Activity in experiment [1] stood at 138%.
